Drawing on article PMC4492107 (Science signaling, 2015), this text covers Kd for one molecule.

This test addresses T1, tcTERT (Tribolium castaneum TERT) (Tribolium castaneum, UniProt Q0QHL8).
T1 sequence (Q0QHL8 1-596): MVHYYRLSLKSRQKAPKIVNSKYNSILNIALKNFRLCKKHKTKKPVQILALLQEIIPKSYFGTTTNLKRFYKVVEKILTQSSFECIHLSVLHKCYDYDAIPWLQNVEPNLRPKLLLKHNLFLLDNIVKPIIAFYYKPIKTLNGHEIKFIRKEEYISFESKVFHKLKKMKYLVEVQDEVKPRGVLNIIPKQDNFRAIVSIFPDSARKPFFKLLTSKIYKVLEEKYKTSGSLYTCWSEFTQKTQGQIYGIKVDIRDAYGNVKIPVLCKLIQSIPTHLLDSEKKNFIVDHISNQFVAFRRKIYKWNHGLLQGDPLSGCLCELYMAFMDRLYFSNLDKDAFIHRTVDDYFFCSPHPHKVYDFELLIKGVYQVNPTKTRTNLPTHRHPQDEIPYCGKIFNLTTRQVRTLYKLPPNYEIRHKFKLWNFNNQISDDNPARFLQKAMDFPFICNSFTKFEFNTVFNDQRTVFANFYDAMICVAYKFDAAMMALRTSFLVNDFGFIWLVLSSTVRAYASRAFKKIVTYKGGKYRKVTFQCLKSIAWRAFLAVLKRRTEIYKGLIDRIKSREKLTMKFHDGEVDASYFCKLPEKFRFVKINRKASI
In words: SPR with POPC:POPE:S1P. The format is binding.

As a reminder, the Kd is the equilibrium constant for the complex coming apart.

The structures appear in SMILES notation.

In turn, `CCCCCCCCCCCCC/C=C/[C@@H](O)[C@@H](N)COP(=O)(O)O` [S1P, sphingosine 1-phosphate] showed a Kd of roughly 4.8 µM.
